Experimental data: US5011952A, “Phospholipase A2 inhibitor” (Shionogi & Co., Ltd., priority 1989, dated 1991)
pIC50: −log10 of the molar value.

How the values were obtained:
[1] = target: T1, PLA2 derived from porcine pancreas (Sus scrofa, UniProt P00592); experiment: PLA2 inhibitory activity, porcine pancreas-derived PLA2; assay type: biochemical; details: read-out: concentration required for exhibiting 50 % inhibitory activity
T1 construct: porcine-derived PLA2; from tissue; host or cells: porcine pancreas
T1 sequence (P00592 23-146): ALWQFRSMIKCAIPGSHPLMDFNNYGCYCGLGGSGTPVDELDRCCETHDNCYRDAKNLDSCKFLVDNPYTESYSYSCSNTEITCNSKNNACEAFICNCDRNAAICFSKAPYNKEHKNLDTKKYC

[2] = target: T2, PLA2 released from thrombin-stimulated rat platelets (Rattus norvegicus, UniProt P14423); experiment: PLA2 inhibitory activity, rat platelet-derived PLA2; assay type: biochemical; details: for inhibitory concentrations of α-thielocin versus β-thielocin: isomers equilibrated in the reaction solution
T2 construct: PLA2 released from thrombin-stimulated rat platelets; from tissue
T2 sequence (P14423 22-146): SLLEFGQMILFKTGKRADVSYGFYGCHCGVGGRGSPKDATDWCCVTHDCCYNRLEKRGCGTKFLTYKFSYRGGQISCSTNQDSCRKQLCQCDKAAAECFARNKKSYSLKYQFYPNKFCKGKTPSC
Description: PLA2 inhibitory activities of thielocin were determined according to the following procedure.
PLA2 released from thrombin-stimulated rat platelets was prepared by immuno-affinity chromatography using antibody MD 7.1-coupled Sepharose (Murakami et. al, J. Biochem 104: 884-888, 1988). The standard assay conditions included, 250 μl of Tris-HCl buffer (100 mM, pH 7.4), CaCl2 (3 mM), 40 μM [^14 C] phosphatidylethanolamine and enzyme. The reaction was started by the addition of the enzyme solution. Following incubation at 37° C. for 20 min the reactions were terminated by addition of 1.25 ml of Dole's reagent (Dole, V. P. & H, Meinerts, J. Biol. Chem 235: 2595-2599, 1960). Then released free fatty acid was extracted, and counted in Liquiflour (Du Pont-New England Nuclear) to determine the release of the radioactivity. Inhibition activity is expressed as percent of enzyme control.

snake venom-derived PLA2 = experiment: PLA2 inhibitory activity, snake venom-derived PLA2; assay type: biochemical
Solubility in solvents = assay type: physicochemical

SMILES | pIC50 [1] | pIC50 ([2]; rat platelet-derived PLA2, [14C]phosphatidylethanolamine substrate, 37° C., 20 min, read-out: concentration required for exhibiting 50 % inhibitory activity) | concentration required for exhibiting 50 % inhibitory activity (snake venom-derived PLA2) | inhibitory concentrations of α-thielocin versus β-thielocin [2] | Solubility (Solubility in solvents; acetone) | Solubility (Solubility in solvents; acetonitrile) | Solubility (Solubility in solvents; chloroform) | Solubility (Solubility in solvents; dimethylsulfoxide) | Solubility (Solubility in solvents; ethanol) | Solubility (Solubility in solvents; ethyl acetate) | Solubility (Solubility in solvents; ethyl ether) | Solubility (Solubility in solvents; hexane) | Solubility (Solubility in solvents; methanol) | Solubility (Solubility in solvents; petroleum ether) | Solubility (Solubility in solvents; water)
COc1c(C)c(OC(=O)c2c(C)c(C)c(OC(=O)C3=C(C)C(C)(O)C4(O)Oc5c(C)c(OC)c(C(=O)Oc6c(C)c(C)c(C(=O)O)c(OC)c6C)c(C)c5CC4(C)C3=O)c(C)c2OC)c(C)c(C)c1C(=O)O (stereo not drawn) [thielocin] | 4.33 | 8.30 | 10 µg/mL | – | – | – | – | – | – | – | – | – | – | – | –
COc1c(C)c(OC(=O)c2c(C)c(C)c(OC(=O)C3=C(C)C(C)(O)C4(O)Oc5c(C)c(OC)c(C(=O)Oc6c(C)c(C)c(C(=O)O)c(OC)c6C)c(C)c5CC4(C)C3=O)c(C)c2OC)c(C)c(C)c1C(=O)O (stereo not drawn) [Thielocin β, β-thielocin] | – | – | – | not distinguished | slightly soluble | slightly soluble | slightly soluble | Soluble | slightly soluble | slightly soluble | sparingly soluble or insoluble | sparingly soluble or insoluble | slightly soluble | sparingly soluble or insoluble | sparingly soluble or insoluble
COc1c(C)c(OC(=O)c2c(C)c(C)c(OC(=O)C3=C(C)C(C)(O)C4(O)Oc5c(C)c(OC)c(C(=O)Oc6c(C)c(C)c(C(=O)O)c(OC)c6C)c(C)c5CC4(C)C3=O)c(C)c2OC)c(C)c(C)c1C(=O)O (stereo not drawn) [Thielocin α, α-thielocin] | – | – | – | not distinguished | Soluble | Soluble | Soluble | Soluble | slightly soluble | Soluble | sparingly soluble or insoluble | sparingly soluble or insoluble | slightly soluble | sparingly soluble or insoluble | sparingly soluble or insoluble
